How the values were obtained:
[1] = H2O2 stabilization in papermaking process water (Example 1); settings: for H2O2 residual: 45° C.
Procedure: Process waters from a papermaking facility which uses recycled fibers were collected during a bleaching stage and allowed to stand for 2 hours to achieve total depletion of the hydrogen peroxide in the process waters.
Into five separate Pyrex beakers were placed 400 ml of the process water. One was retained as a control. 150 and 300 ppm of an aqueous solution containing 40% by weight of 1,3-bis(hydroxymethyl)-5,5-dimethylhydantoin (DMDMH) (Dantogard®) were added to two beakers for a total concentration of 60 ppm and 120 ppm of DMDMH, respectively. On an equivalent aldehyde basis, this corresponds to 0.65 mEq/l and 1.30 mEq/l, respectively. 150 and 300 ppm of an aqueous solution containing […] of glutaraldehyde were added to the remaining two beakers for a total concentration of 83 ppm and 166 ppm of glutaraldehyde, respectively. On an equivalent aldehyde basis, this corresponds to 1.66 mEq/l and 3.32 mEq/l, respectively. The samples were placed in a controlled water bath at 45° C. and stirred with a magnetic stirrer set on slow agitation.
To all the test samples, a sufficient volume of a 1% (by weight) hydrogen peroxide (H2O2) aqueous solution was added to achieve a concentration of 20-25 ppm of hydrogen peroxide in the samples. At regular time intervals, over a 45 minute period, aliquots were removed and analyzed for peroxide residual (i.e. the concentration of hydrogen peroxide) using a thiosulfate titration kit (HACH Test Kit, Model HYP-1, available from Hach Company of Loveland, Colo.). The results, shown in Table 1, correlate to the amount of peroxide present at the specific time interval, expressed as ppm of hydrogen peroxide.

catalase = molecular target: T1, catalase (Aspergillus niger, UniProt P55303); test: Catalase promoted hydrogen peroxide decomposition in phosphate buffer pH 7.0 (Example 6); type: biochemical, A. niger; settings: 526 ppm product
T1 construct: purchased Sigma Aldrich C-3515; host or cells: A. niger derived
Procedure: Hydrogen peroxide solutions containing 470 ppm active peroxide in sterile Butterfield's phosphate buffer (pH=7.0) were treated with 1.2 units of catalase (A. niger available from Sigma Aldrich of St. Louis, Mo. (C-3515)) alone or with 263 or 526 ppm of Dantogard® 2000, available from Lonza Inc. of Fair Lawn, N.J., or 526 ppm of an aqueous 49% glutaraldehyde solution. Dantogard® 2000 is a 65% aqueous mixture of DMDMH, MMDMH and DMH having a minimal free formaldehyde concentration. The peroxide decomposition rate was monitored during the decrease in peroxide concentration from 390 to 350 ppm by ultraviolet absorbance at 240 nm. The temperature was 23° C.

T1 sequence (P55303 whole entry): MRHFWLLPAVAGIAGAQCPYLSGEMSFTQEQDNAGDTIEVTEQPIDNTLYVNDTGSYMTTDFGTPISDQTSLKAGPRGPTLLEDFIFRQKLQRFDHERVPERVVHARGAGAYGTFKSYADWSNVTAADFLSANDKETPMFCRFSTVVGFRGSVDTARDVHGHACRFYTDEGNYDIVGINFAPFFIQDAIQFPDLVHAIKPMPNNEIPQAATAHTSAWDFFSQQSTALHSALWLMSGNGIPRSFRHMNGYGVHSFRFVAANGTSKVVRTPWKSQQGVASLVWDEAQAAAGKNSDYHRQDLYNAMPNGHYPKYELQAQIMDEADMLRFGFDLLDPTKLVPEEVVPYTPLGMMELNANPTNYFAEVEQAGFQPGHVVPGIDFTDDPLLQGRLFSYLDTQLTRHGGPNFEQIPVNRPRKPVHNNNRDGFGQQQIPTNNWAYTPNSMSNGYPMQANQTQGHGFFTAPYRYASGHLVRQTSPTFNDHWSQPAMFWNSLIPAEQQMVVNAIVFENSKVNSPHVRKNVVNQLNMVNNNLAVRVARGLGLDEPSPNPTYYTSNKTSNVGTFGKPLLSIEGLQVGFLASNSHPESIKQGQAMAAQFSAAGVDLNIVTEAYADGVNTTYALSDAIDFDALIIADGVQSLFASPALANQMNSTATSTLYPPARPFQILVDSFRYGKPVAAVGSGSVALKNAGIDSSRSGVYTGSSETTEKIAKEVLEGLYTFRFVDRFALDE

O=CCCCC=O [Glutaraldehyde, glutaraldehyde]
H2O2 residual ([1]; 83 ppm glutaraldehyde, 0 min): 25 ppm H2O2 | H2O2 residual ([1]; 83 ppm glutaraldehyde, 10 min): 24 ppm H2O2 | H2O2 residual ([1]; 83 ppm glutaraldehyde, 15 min): 22 ppm H2O2 | H2O2 residual ([1]; 83 ppm glutaraldehyde, 20 min): 20 ppm H2O2 | H2O2 residual ([1]; 83 ppm glutaraldehyde, 30 min): 16 ppm H2O2 | H2O2 residual ([1]; 83 ppm glutaraldehyde, 40 min): 14 ppm H2O2 | H2O2 residual ([1]; 83 ppm glutaraldehyde, 45 min): 12 ppm H2O2 | H2O2 residual ([1]; 166 ppm glutaraldehyde, 0 min): 26 ppm H2O2 | H2O2 residual ([1]; 166 ppm glutaraldehyde, 10 min): 24 ppm H2O2 | H2O2 residual ([1]; 166 ppm glutaraldehyde, 15 min): 21 ppm H2O2 | H2O2 residual ([1]; 166 ppm glutaraldehyde, 20 min): 19 ppm H2O2 | H2O2 residual ([1]; 166 ppm glutaraldehyde, 30 min): 17 ppm H2O2 | H2O2 residual ([1]; 166 ppm glutaraldehyde, 40 min): 15 ppm H2O2 | H2O2 residual ([1]; 166 ppm glutaraldehyde, 45 min): 13 ppm H2O2 | Peroxide Decomposition Rate (catalase; 1.2 units catalase, pH 7.0, 23° C., peroxide 390 to 350 ppm): 0.230 ppm/sec | Normalized Decomposition Rate (catalase; control = 1.00): 1.0

CC1(C)C(=O)N(CO)C(=O)N1CO [DMDMH, 1,3-bis(hydroxymethyl)-5,5-dimethylhydantoin]
H2O2 residual ([1]; 60 ppm DMDMH, 0 min): 25 ppm H2O2 | H2O2 residual ([1]; 60 ppm DMDMH, 10 min): 24 ppm H2O2 | H2O2 residual ([1]; 60 ppm DMDMH, 15 min): 23 ppm H2O2 | H2O2 residual ([1]; 60 ppm DMDMH, 20 min): 22 ppm H2O2 | H2O2 residual ([1]; 60 ppm DMDMH, 30 min): 18 ppm H2O2 | H2O2 residual ([1]; 60 ppm DMDMH, 40 min): 16 ppm H2O2 | H2O2 residual ([1]; 60 ppm DMDMH, 45 min): 15 ppm H2O2 | H2O2 residual ([1]; 120 ppm DMDMH, 0 min): 26 ppm H2O2 | H2O2 residual ([1]; 120 ppm DMDMH, 10 min): 24 ppm H2O2 | H2O2 residual ([1]; 120 ppm DMDMH, 15 min): 23 ppm H2O2 | H2O2 residual ([1]; 120 ppm DMDMH, 20 min): 20 ppm H2O2 | H2O2 residual ([1]; 120 ppm DMDMH, 30 min): 18 ppm H2O2 | H2O2 residual ([1]; 120 ppm DMDMH, 40 min): 17 ppm H2O2 | H2O2 residual ([1]; 120 ppm DMDMH, 45 min): 16 ppm H2O2 | peroxide stabilization compared to glutaraldehyde ([1]; Table 1 comparison, ppm product basis): superior peroxide stabilization compared to glutaraldehyde

From patent publication US6696093B2, “Aldehyde donors for stabilizing peroxides” (Lonza Inc., priority 2000, dated 2004)
